Test results taken from PubChem BioAssay AID588599 (Sanford-Burnham Center for Chemical Genomics, 2011).

Target: Caspase-3 (Homo sapiens) (UniProt P42574)
Experiment: inhibition of recombinant caspase-3 activity – biochemical, luminescence, set 2, selectivity assay for SENP protease inhibitor project, SAR follow-up (AID 588599)
Settings: recombinant caspase-3, Z-DEVD-aminoluciferin luminescence, 60 min

Caspase-3 (Homo sapiens), sequence (P42574 28-227 limits assumed): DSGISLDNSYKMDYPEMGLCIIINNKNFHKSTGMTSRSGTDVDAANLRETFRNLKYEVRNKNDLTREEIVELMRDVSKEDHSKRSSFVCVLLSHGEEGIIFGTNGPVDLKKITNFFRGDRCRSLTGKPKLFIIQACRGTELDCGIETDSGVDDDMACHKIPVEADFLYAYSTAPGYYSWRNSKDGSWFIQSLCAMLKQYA

Row | IC50 [µM] | Compound
1 | 23.9 | Fc1ccc(/C=C/c2noc(-c3ccccc3I)n2)cc1
2 | 1.11 | CCCCc1ccc2nc(NC(=O)c3sccc3Cl)sc2c1
3 | 0.515 | O=C(Nc1nc2ccccc2s1)c1cc2ccccc2s1
4 | 10.6 | Cc1cccc(-c2noc(/C=C/c3ccccc3)n2)c1
